Experiments:
[1] = Formation of 1,5-cz-[M(Lig)] from Lig and M^III ions (metal dependent click-zip) (Charts 4, 5); assay type: physicochemical; settings: MOPS/NaOH buffer pH 7.0, TD728, TD827 in 50% i-PrOH; for conversion to 1,5-cz-[M(Lig)], Y^III: TD714 sum of two diastereoisomers
[2] = Formation of 1,5-cz-[Ln(Lig)] from Lig and Ln^III ions (metal dependent click-zip), MOPS/NaOH buffer pH 7.0, analytical HPLC (Charts 1, 2); settings: MOPS/NaOH buffer pH 7.0

Row | SMILES | conversion to 1,5-cz-[M(Lig)], Sc^III ([1]; 1 week at 80° C.) [%] | conversion to 1,5-cz-[M(Lig)], Y^III ([1]; 1 week at 80° C.) [%] | conversion to 1,5-cz-[M(Lig)], Sc^III ([1]; 1 hour at 80° C.) [%] | conversion to 1,5-cz-[M(Lig)], Y^III ([1]; 1 hour at 80° C.) [%] | conversion to 1,5-cz-[Ln(Lig)], Ce^III ([2]; after 1 hour at 80° C.) [%] | conversion to 1,5-cz-[Ln(Lig)], Dy^III ([2]; after 1 week at 80° C.) [%] | conversion to 1,5-cz-[Ln(Lig)], Dy^III ([2]; after 1 hour at 80° C.) [%] | conversion to 1,5-cz-[Ln(Lig)], Er^III ([2]; after 1 week at 80° C.) [%] | conversion to 1,5-cz-[Ln(Lig)], Er^III ([2]; after 1 hour at 80° C.) [%] | conversion to 1,5-cz-[Ln(Lig)], Eu^III ([2]; after 1 week at 80° C.) [%] | conversion to 1,5-cz-[Ln(Lig)], Eu^III ([2]; after 1 hour at 80° C.) [%] | conversion to 1,5-cz-[Ln(Lig)], Gd^III ([2]; after 1 week at 80° C.) [%] | conversion to 1,5-cz-[Ln(Lig)], Gd^III ([2]; after 1 hour at 80° C.) [%] | conversion to 1,5-cz-[Ln(Lig)], Ho^III ([2]; after 1 week at 80° C.) [%] | conversion to 1,5-cz-[Ln(Lig)], Ho^III ([2]; after 1 hour at 80° C.) [%] | conversion to 1,5-cz-[Ln(Lig)], La^III ([2]; after 1 hour at 80° C.) [%] | conversion to 1,5-cz-[Ln(Lig)], Lu^III ([2]; after 1 week at 80° C.) [%] | conversion to 1,5-cz-[Ln(Lig)], Lu^III ([2]; after 1 hour at 80° C.) [%] | conversion to 1,5-cz-[Ln(Lig)], Nd^III ([2]; after 1 hour at 80° C.) [%] | conversion to 1,5-cz-[Ln(Lig)], Pr^III ([2]; after 1 hour at 80° C.) [%] | further results
1 | C#Cc1cccc(CN2CCN(CC(=O)O)CCN(Cc3cccc(CN=[N+]=[N-])n3)CCN(CC(=O)O)CC2)n1 [TD556] | 23 | 95 | 2 | 22 | 1 | 94 | 16 | 95 | 37 | 92 | 4 | 91 | 5 | 95 | 24 | 1 | 95 | 71 | 2 | 1 | conversion to 1,5-cz-[Ln(Lig)], Ce^III ([2]; after 1 week at 80° C.): 25%; conversion to 1,5-cz-[Ln(Lig)], La^III ([2]; after 1 week at 80° C.): 50%; conversion to 1,5-cz-[Ln(Lig)], Nd^III ([2]; after 1 week at 80° C.): 81%; conversion to 1,5-cz-[Ln(Lig)], Pr^III ([2]; after 1 week at 80° C.): 64%; conversion to 1,5-cz-[Ln(Lig)], Sm^III ([2]; after 1 week at 80° C.): 92%; conversion to 1,5-cz-[Ln(Lig)], Sm^III ([2]; after 1 hour at 80° C.): 3%; conversion to 1,5-cz-[Ln(Lig)], Tb^III ([2]; after 1 week at 80° C.): 95%; conversion to 1,5-cz-[Ln(Lig)], Tb^III ([2]; after 1 hour at 80° C.): 11%; conversion to 1,5-cz-[Ln(Lig)], Tm^III ([2]; after 1 week at 80° C.): 95%; conversion to 1,5-cz-[Ln(Lig)], Tm^III ([2]; after 1 hour at 80° C.): 52%; conversion to 1,5-cz-[Ln(Lig)], Yb^III ([2]; after 1 week at 80° C.): 95%; conversion to 1,5-cz-[Ln(Lig)], Yb^III ([2]; after 1 hour at 80° C.): 64%
2 | C#CCN(CC#C)CCN1CCN(CC(=O)O)CCN(Cc2cc(-c3ccccc3)cc(CN=[N+]=[N-])n2)CCN(CC(=O)O)CC1 [TD669] | 0 | 12 | 0 | 0 | 0 | 20 | 0 | 12 | 0 | 25 | 0 | 24 | 0 | 14 | 0 | 0 | 7 | 0 | 0 | 0 | conversion to 1,5-cz-[Ln(Lig)], Sm^III ([2]; after 1 week at 80° C.): 33%; conversion to 1,5-cz-[Ln(Lig)], Sm^III ([2]; after 1 hour at 80° C.): 0%; conversion to 1,5-cz-[Ln(Lig)], Tb^III ([2]; after 1 hour at 80° C.): 0%; conversion to 1,5-cz-[Ln(Lig)], Tm^III ([2]; after 1 week at 80° C.): 11%; conversion to 1,5-cz-[Ln(Lig)], Tm^III ([2]; after 1 hour at 80° C.): 0%; conversion to 1,5-cz-[Ln(Lig)], Yb^III ([2]; after 1 week at 80° C.): 10%; conversion to 1,5-cz-[Ln(Lig)], Yb^III ([2]; after 1 hour at 80° C.): 0%
3 | [N-]=[N+]=NCc1cc(-c2ccccc2)cc(CN2CCN(CC(=O)O)CCN(Cc3cccc(C#CCN)n3)CCN(CC(=O)O)CC2)n1 [TD722] | 14 | 71 | 3 | 9 | 0 | 65 | 5 | 91 | 17 | 14 | 1 | 19 | 2 | 82 | 9 | 0 | 96 | 49 | 0 | 0 | conversion to 1,5-cz-[Ln(Lig)], Ce^III ([2]; after 1 week at 80° C.): 1%; conversion to 1,5-cz-[Ln(Lig)], La^III ([2]; after 1 week at 80° C.): 2%; conversion to 1,5-cz-[Ln(Lig)], Nd^III ([2]; after 1 week at 80° C.): 4%; conversion to 1,5-cz-[Ln(Lig)], Pr^III ([2]; after 1 week at 80° C.): 3%; conversion to 1,5-cz-[Ln(Lig)], Sm^III ([2]; after 1 week at 80° C.): 9%; conversion to 1,5-cz-[Ln(Lig)], Sm^III ([2]; after 1 hour at 80° C.): 1%; conversion to 1,5-cz-[Ln(Lig)], Tb^III ([2]; after 1 week at 80° C.): 54%; conversion to 1,5-cz-[Ln(Lig)], Tb^III ([2]; after 1 hour at 80° C.): 3%; conversion to 1,5-cz-[Ln(Lig)], Tm^III ([2]; after 1 week at 80° C.): 96%; conversion to 1,5-cz-[Ln(Lig)], Tm^III ([2]; after 1 hour at 80° C.): 27%; conversion to 1,5-cz-[Ln(Lig)], Yb^III ([2]; after 1 week at 80° C.): 96%; conversion to 1,5-cz-[Ln(Lig)], Yb^III ([2]; after 1 hour at 80° C.): 38%
4 | C#Cc1cccc(CN2CCN(CC(=O)O)CCN(Cc3cc(-c4ccc(C(=O)O)cc4)cc(CN=[N+]=[N-])n3)CCN(CC(=O)O)CC2)n1 [TD742] | 52 | 94 | 7 | 22 | 1 | 93 | 15 | 94 | 34 | 89 | 4 | 91 | 5 | 94 | 22 | 1 | 94 | 66 | 1 | 1 | conversion to 1,5-cz-[Ln(Lig)], Ce^III ([2]; after 1 week at 80° C.): 43%; conversion to 1,5-cz-[Ln(Lig)], La^III ([2]; after 1 week at 80° C.): 40%; conversion to 1,5-cz-[Ln(Lig)], Nd^III ([2]; after 1 week at 80° C.): 76%; conversion to 1,5-cz-[Ln(Lig)], Pr^III ([2]; after 1 week at 80° C.): 66%; conversion to 1,5-cz-[Ln(Lig)], Sm^III ([2]; after 1 week at 80° C.): 87%; conversion to 1,5-cz-[Ln(Lig)], Sm^III ([2]; after 1 hour at 80° C.): 3%; conversion to 1,5-cz-[Ln(Lig)], Tb^III ([2]; after 1 week at 80° C.): 93%; conversion to 1,5-cz-[Ln(Lig)], Tb^III ([2]; after 1 hour at 80° C.): 9%; conversion to 1,5-cz-[Ln(Lig)], Tm^III ([2]; after 1 week at 80° C.): 94%; conversion to 1,5-cz-[Ln(Lig)], Tm^III ([2]; after 1 hour at 80° C.): 48%; conversion to 1,5-cz-[Ln(Lig)], Yb^III ([2]; after 1 week at 80° C.): 93%; conversion to 1,5-cz-[Ln(Lig)], Yb^III ([2]; after 1 hour at 80° C.): 55%
